Measured values: ChEMBL document CHEMBL5154831 (J Med Chem, 2022)
Converted amounts (≈) assume the structure as drawn.

Experiments:
[1] = AUC (0 to t) in C57BL/6 mouse at 2 mg/kg, sc by LC-MS analysis; format: ADME, organism-based; design: dose 2 mg/kg, route sc; settings: in vivo
[2] = Elimination rate constant in C57BL/6 mouse at 2 mg/kg, sc by LC-MS analysis; format: ADME, organism-based; settings: in vivo
[3] = Cmax in C57BL/6 mouse at 2 mg/kg, sc by LC-MS analysis; format: ADME, organism-based; design: dose 2 mg/kg, route sc; settings: in vivo
[4] = Toxicity in wild type mouse assessed as effect on kidney size; settings: in vivo
[5] = Toxicity in wild type mouse assessed as effect on body weight; settings: in vivo
[6] = Equilibrium solubility of compound in water incubated for 24 hrs by UV-spectroscopy method; format: physicochemical
[7] = Half life in C57BL/6 mouse at 2 mg/kg, sc by LC-MS analysis; format: ADME, organism-based; settings: in vivo
[8] = Tmax in C57BL/6 mouse at 2 mg/kg, sc by LC-MS analysis; format: ADME, organism-based; settings: in vivo
Vasopressin V2 receptor = Vasopressin V2 receptor (Homo sapiens, UniProt P30518); assay: Displacement of conivaptan-red from SNAP-tagged V2 receptor (unknown origin) expressed in HEK293 cells assessed as inhibition constant measured after 2 hrs by HTRF assay; format: cell-based
[9] = biological target: Vasopressin V2 receptor (Rattus norvegicus) (UniProt Q00788); assay: Ex vivo receptor occupancy at V2R in isolated perfused Sprague-Dawley rat kidney assessed as dissociation half life at 0.1 uM incubated for 30 mins by LC-MS analysis; format: functional, tissue-based
[10] = Toxicity in wild type mouse assessed as effect on body weight at 2 mg/kg; format: organism-based; settings: in vivo

Vasopressin V2 receptor, sequence (P30518 whole entry, the tested form may be a part): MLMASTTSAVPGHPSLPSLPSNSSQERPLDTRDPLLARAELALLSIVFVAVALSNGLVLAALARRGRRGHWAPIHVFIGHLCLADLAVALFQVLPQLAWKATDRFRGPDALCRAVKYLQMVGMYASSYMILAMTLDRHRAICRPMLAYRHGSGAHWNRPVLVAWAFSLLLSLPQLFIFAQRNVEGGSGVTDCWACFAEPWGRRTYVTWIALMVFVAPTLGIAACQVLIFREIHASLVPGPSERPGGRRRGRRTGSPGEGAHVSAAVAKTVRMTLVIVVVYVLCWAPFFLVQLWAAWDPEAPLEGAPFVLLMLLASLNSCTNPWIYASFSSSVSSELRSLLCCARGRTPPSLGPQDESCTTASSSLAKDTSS
Vasopressin V2 receptor (Rattus norvegicus), sequence (Q00788 whole entry, the tested form may be a part): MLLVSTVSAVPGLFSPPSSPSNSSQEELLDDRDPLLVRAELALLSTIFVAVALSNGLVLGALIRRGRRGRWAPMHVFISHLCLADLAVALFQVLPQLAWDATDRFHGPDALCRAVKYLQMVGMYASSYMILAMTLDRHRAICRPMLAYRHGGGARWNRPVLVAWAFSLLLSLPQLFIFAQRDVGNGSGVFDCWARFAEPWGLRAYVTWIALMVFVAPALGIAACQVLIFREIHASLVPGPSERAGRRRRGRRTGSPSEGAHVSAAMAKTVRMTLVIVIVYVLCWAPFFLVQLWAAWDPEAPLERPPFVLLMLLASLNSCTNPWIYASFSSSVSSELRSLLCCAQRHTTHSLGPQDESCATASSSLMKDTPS

Row | Compound | AUC(0-t) [1] [ng·h/mL] | k el [2] [s⁻¹] | Cmax [3] [ng/mL] | Activity [4] | Activity [5] | solubility thermodynamic at 24 h [6] [µg/mL] | half-life [7] [min] | Tmax [8] [min] | Ki (Vasopressin V2 receptor) [nM] | T1/2 [9] [min] | Activity [10]
1 | Cc1ccccc1C(=O)Nc1ccc(C(=O)N2CCCC(NCCCN3CCN(C)CC3)c3cc(Cl)ccc32)c(C)c1 (stereo not drawn) | 588 | 2.75e-05 | 518 | Non-Toxic | Non-Toxic | 2.3 (≈ 3.91 µM) | 420 | 4.98 | – | – | –
2 | Cc1ccccc1C(=O)Nc1ccc(C(=O)N2CCCC(NCCN3CCOCC3)c3cc(Cl)ccc32)c(C)c1 (stereo not drawn) | 544 | 0.000417 | 679 | Non-Toxic | Non-Toxic | 2.3 (≈ 4.1 µM) | 28.2 | 4.98 | – | – | –
3 | Cc1ccccc1C(=O)Nc1ccc(C(=O)N2CCCC(NCCCCN3CCOCC3)c3cc(Cl)ccc32)c(C)c1 (stereo not drawn) | 514 | 3.89e-05 | 365 | Non-Toxic | Non-Toxic | 2.3 (≈ 3.9 µM) | 324 | 4.98 | – | – | –
4 | Cc1ccccc1C(=O)Nc1ccc(C(=O)N2CCCC(NCCCN3CCCCC3)c3cc(Cl)ccc32)c(C)c1 (stereo not drawn) | 1110 | 5e-05 | 419 | Non-Toxic | Non-Toxic | 2.3 (≈ 4.01 µM) | 234 | 19.8 | – | – | –
5 | CCN(CC)CCCNC1CCCN(C(=O)c2ccc(NC(=O)c3ccccc3C)cc2C)c2ccc(Cl)cc21 (stereo not drawn) | 527 | 8.33e-05 | 426 | Non-Toxic | Non-Toxic | 2.3 (≈ 4.1 µM) | 174 | 11.4 | 31 | – | –
6 | Cc1ccccc1C(=O)Nc1ccc(C(=O)N2CCCC(NCCC(=O)N3CCOCC3)c3cc(Cl)ccc32)c(C)c1 (stereo not drawn) | 450 | 0.000667 | 783 | Non-Toxic | Non-Toxic | 2.3 (≈ 3.9 µM) | 17.4 | 8.4 | – | – | –
7 | Cc1ccccc1C(=O)Nc1ccc(C(=O)N2CCCC(NCCCCCN3CCOCC3)c3cc(Cl)ccc32)c(C)c1 (stereo not drawn) | 450 | 2.58e-05 | 157 | Non-Toxic | Non-Toxic | 2.3 (≈ 3.81 µM) | 450 | 8.4 | – | – | –
8 | Cc1ccccc1C(=O)Nc1ccc(C(=O)N2CCCC(O)c3cc(Cl)ccc32)c(C)c1 (stereo not drawn) [TOLVAPTAN] | 824 | 4.72e-05 | 394 | Non-Toxic | Non-Toxic | 2.3 (≈ 5.12 µM) | 246 | 49.8 | – | 23 | –
9 | Cc1ccccc1C(=O)Nc1ccc(C(=O)N2CCCC(NCCCc3ccncc3)c3cc(Cl)ccc32)c(C)c1 (stereo not drawn) | 565 | 0.000361 | 360 | Non-Toxic | Non-Toxic | 2.3 (≈ 4.06 µM) | 32 | 16.7 | – | – | –
10 | Cc1ccccc1C(=O)Nc1ccc(C(=O)N2CCCC(NCCCN3CCOCC3)c3cc(Cl)ccc32)c(C)c1 (stereo not drawn) | 817 | 4.72e-05 | 453 | Non-Toxic | Non-Toxic | 2.3 (≈ 4 µM) | 258 | 15 | – | – | Non-Toxic
